Key:
CYP26A1 = molecular target: T1, CYP26A1 (Mus musculus, UniProt O55127); settings: 0.1 mM, 4 h, cells in culture
T1 sequence (O55127 1-497): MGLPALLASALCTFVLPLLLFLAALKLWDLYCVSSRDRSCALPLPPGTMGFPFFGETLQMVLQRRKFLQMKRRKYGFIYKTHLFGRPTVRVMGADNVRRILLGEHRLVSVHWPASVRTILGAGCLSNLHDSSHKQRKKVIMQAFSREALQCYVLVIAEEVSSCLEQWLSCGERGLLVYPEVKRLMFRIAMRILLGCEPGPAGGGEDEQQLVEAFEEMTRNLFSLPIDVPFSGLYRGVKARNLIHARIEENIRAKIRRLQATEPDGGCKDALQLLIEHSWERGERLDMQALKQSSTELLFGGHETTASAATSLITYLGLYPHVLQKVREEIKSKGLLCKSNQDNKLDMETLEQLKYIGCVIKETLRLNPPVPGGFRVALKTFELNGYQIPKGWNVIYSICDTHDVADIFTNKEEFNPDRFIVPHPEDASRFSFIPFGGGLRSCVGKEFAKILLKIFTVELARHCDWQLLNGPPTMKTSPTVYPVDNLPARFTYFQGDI
Description: (§1) CYP26A1 Oxidation Assay. […] After 24 h, the transfected cells were split into 12-well plates to ensure an equal number of transfected cells in each assay well. […] The peaks were identified based on their spectra and coelution with standards. The cell lysate was examined for expression of CYP26A1, -B1, and -C1 by SDS-PAGE and immunoblotting of the V5 epitope-tagged recombinant protein using an anti-V5 epitope monoclonal antibody (Invitrogen).

CYP26C1 = molecular target: T2, CYP26C1 (Mus musculus, UniProt B2RXA7); settings: 0.1 mM, 4 h, cells in culture
T2 sequence (B2RXA7 1-518): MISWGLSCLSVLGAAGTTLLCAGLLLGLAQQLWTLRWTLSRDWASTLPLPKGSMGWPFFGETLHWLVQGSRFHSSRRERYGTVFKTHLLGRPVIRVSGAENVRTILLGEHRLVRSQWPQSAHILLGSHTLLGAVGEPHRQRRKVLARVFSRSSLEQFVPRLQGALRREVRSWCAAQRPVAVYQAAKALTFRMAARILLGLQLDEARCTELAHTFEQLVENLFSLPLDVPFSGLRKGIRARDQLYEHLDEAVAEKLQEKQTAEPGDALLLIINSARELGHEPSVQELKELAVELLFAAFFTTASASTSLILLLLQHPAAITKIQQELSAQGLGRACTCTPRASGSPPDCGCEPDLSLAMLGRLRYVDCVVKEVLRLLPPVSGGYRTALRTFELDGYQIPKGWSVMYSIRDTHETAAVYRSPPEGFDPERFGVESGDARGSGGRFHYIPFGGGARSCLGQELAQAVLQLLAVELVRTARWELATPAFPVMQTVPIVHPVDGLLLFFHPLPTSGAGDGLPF
Description: as §1

[1] = Conversion of DROL to DRA by RPE microsomes; format: in vitro ADME; settings: in the presence of NAD and NADP
Description: Conversion of DROL to DRA in RPE. UV-treated RPE microsomes were prepared as described previously. Stecher, et al. J. Biol. Chem. 274:8577-8585, 1999. Twenty μl of UV-treated RPE microsomes (3 mg/ml) were mixed with 20 μM DROL or ROL substrates, 1% bovine serum albumin, and 50 mM Tris (pH 8.8) and were incubated at 37° C. for 60 min in the presence or absence of NAD NADP cofactor mixture at 50 μM each. In order to stop the reaction, proteins were precipitated by mixing with an equal volume of CH3CN followed by high speed centrifugation. […] A boiled RPE membrane control was used to assay nonenzymatic conversion of DROL. The elution of all-trans-DROL metabolites was monitored at 290 nm.

RDH12 = molecular target: T3, RDH12 (Homo sapiens, UniProt Q96NR8); experiment: Oxidation by RDH12; format: biochemical; settings: results not shown
T3 sequence (Q96NR8 1-316): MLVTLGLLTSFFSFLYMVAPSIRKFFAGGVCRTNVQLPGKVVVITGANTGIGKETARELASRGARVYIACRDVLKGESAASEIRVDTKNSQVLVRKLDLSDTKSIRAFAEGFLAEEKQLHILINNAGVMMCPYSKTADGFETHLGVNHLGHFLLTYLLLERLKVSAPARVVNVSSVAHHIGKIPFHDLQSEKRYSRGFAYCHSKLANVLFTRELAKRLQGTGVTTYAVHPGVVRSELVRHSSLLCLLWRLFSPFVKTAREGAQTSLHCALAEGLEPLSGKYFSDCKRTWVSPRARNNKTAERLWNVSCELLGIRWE

mouse RetSat = molecular target: T4, mouse RetSat (Mus musculus, UniProt Q64FW2); experiment: RetSat saturase activity in Tet-induced HEKK-RetSat cells; format: cell-based; settings: 40 μM substrate, overnight incubation
T4 construct: expressed in transfected cells
T4 sequence (Q64FW2 26-609): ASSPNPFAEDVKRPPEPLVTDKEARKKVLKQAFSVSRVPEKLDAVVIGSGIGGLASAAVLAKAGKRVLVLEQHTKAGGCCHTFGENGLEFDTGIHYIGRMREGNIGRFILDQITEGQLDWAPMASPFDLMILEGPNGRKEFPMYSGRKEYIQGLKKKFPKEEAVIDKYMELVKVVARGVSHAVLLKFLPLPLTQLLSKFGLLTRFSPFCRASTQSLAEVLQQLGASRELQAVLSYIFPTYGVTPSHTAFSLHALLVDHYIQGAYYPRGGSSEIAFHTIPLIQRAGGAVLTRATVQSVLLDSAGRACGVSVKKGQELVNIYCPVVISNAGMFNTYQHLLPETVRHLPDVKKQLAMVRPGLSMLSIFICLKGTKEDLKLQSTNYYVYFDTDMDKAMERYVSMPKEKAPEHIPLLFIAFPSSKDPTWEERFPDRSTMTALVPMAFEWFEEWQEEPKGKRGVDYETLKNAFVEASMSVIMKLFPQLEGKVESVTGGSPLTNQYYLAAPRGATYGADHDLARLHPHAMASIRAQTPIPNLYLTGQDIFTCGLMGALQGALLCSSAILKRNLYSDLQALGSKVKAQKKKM
Description: Enzyme assays of RetSat and CRTISO-catalyzed reactions. For enzyme assay, cells were seeded in six-well plates and expression of RetSat or CRTISO was induced with 1 μg/ml tetracycline 48 hr prior to analysis. Substrate preparation and addition were conducted under dim red light. Retinoid substrates were purified by HPLC as described above and dissolved in N,N-dimethylformamide (DMF) to a final concentration of 4 mM. Organic extract of tangerine tomatoes was dried under a stream of argon and resuspended in DMF. The substrates were diluted in 300 μl complete media (tetracycline 1 μg/ml) to a 40 μM final concentration, overlayed on cells, and incubated overnight in the dark at 37° C. in 5% CO2 and 100% humidity. Media and cells were collected by scraping, mixed with an equal volume of methanol. For retinol and dihydroretinol analysis the methanol:water mixture was extracted with two volumes of hexane, then the organic phase was dried, resuspended in hexane, and analyzed by normal-phase HPLC. […] For carotenoid analysis the organic phase was dried and resuspended in ethanol/tetrahydrofuran (9:1) and examined by reverse-phase HPLC System I. For retinoic acid analysis the 1:1 methanol:water mixture was acidified with 0.1 volumes of 12N HCl and extracted with 1 volume of chlorofom, dried and resuspended in ethanol and examined by reverse-phase HPLC System II.

Q: Which “Oxidation to polar metabolites by CYP26A1” value (CYP26A1) does the source give for `CC1=C(/C=C/C(C)=C/C=C/C(C)CC(=O)O)C(C)(C)CCC1` (stereo not drawn) [all-trans-DRA, all-trans-13,14-dihydroretinoic acid] here?
A: efficiently carried out the oxidation

Q: What about the “Oxidation to polar metabolites by CYP26C1” value (CYP26C1) of the same compound?
A: efficiently carried out the oxidation

Q: For `CC1=C(/C=C/C(C)=C/C=C/C(C)CCO)C(C)(C)CCC1` (stereo not drawn) [all-trans-DROL, all-trans-13,14-dihydroretinol], which “Conversion to the acid by RPE microsomes” value [1] is on record?
A: efficiently converted

Q: What about the “Oxidation to the aldehyde by RDH12” value (RDH12) of the same compound?
A: much less so

Q: With `CC1=C(/C=C/C(C)=C/C=C/C(C)=C/C(=O)O)C(C)(C)CCC1` [all-trans-RA, all-trans-retinoic acid, reference compound] as the compound, how does the “Saturation by RetSat (substrate activity)” value (mouse RetSat) read?
A: not substrate

Q: And the “Oxidation to polar metabolites by CYP26A1” value (CYP26A1)?
A: efficiently carried out the oxidation

Q: What about the “Oxidation to polar metabolites by CYP26C1” value (CYP26C1) of the same compound?
A: efficiently carried out the oxidation

Q: For `CC1=C(/C=C/C(C)=C/C=C/C(C)=C/CO)C(C)(C)CCC1` [all-trans-ROL, all-trans-retinol], which “Saturation by RetSat (substrate activity)” value (mouse RetSat) is on record?
A: good substrate

Q: And the “Conversion to the acid by RPE microsomes” value [1]?
A: catalyzed the conversion

Q: What about the “Oxidation to the aldehyde by RDH12” value (RDH12) of the same compound?
A: active
